Patent US20100063065A1 (Inpharmatica Limited, priority 2005, published 2010)

The compounds below were run against T1, PPARδ (Homo sapiens, UniProt Q03181) (assay: Transactivation assay (PPARδ GAL4 assay) in transiently transfected HEK293 cells). Settings: luciferase reporter, Table 1.
T1 construct: fused to amino acids 147-441 of PPARδ downstream of CMV promoter; expressed in transfected cells; host or cells: HEK293 cells, transiently transfected with pFACMV-PPARδ using Fugene
T1 sequence (Q03181 147-441): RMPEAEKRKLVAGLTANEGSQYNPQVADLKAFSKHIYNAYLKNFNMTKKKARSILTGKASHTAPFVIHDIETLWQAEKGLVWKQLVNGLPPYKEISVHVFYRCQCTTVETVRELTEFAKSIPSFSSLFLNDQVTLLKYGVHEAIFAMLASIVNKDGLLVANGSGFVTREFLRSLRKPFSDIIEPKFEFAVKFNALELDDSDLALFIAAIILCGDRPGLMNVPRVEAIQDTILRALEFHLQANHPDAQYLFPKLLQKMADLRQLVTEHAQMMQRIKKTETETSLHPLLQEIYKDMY
Type: cell-based
Description: Compounds were screened for their functional potency in transiently transfected HEK293 cells for their ability to activate PPAR subtypes. Cells were cultured in DMEM (Invitrogen) supplemented with 10% foetal calf serum, glutamine, penicillin and streptomycin and plated at 10 000 cells/well of a 96-well solid white plate and incubated at 37° C./5% CO2 for 24 hours. Media was removed and the cells washed with PBS. Cells were then transiently transfected using Fugene (Roche) with 50 ng pFACMV-PPARδ (plasmid encoding amino acids 1-147 of the GAL4 DNA binding domain, fused to amino acids 147-441 of PPARδ downstream of CMV promoter) and 250 ng pFR-Luc (reporter plasmid containing 5×GAL4 response elements upstream of a luciferase gene), using a ratio of 3:1 Fugene:DNA. 100 μl of this transfection mixture in DMEM (without foetal calf serum) was added to each well, and the incubation continued for a further 24 hours. The cells are then again washed with PBS prior to the addition of 100 μl reduced serum medium (OptiMEM; Invitrogen). Compounds were added (10 μl in 2% DMSO in OptiMEM) to achieve final concentrations between 0-30 μM. The cells were then returned to the incubator for a further 24 hours. 100 μl of luciferase reagent (Bright Glo, Promega) was added directly to each well, and the luminescence determined using a suitable luminometer.
To measure the selectivity of compounds, their ability to transactivate GAL4 fusions of PPARα LBD and PPARγ LBD was determined. The activity of compounds was expressed as a percentage relative to control compounds: PPARγ rosiglitazone (BRL 49653), PPARδ GW501516 (11) or PPARα KCL1999000269 (12). EC50 values were calculated by fitting of the data to a sigmoidal dose response curve.

| SMILES | EC50 |
| --- | --- |
| CCc1cc(C(=O)c2ccc(Cl)c(Cl)c2)c(NC(=O)CSC(C)(C)C(=O)O)s1 [Example 29, 2-{[3-(3,4-Dichloro-benzoyl)-5-ethyl-thiophen-2-ylcarbamoyl]-methylsulfanyl}-2-methyl-propionic acid] | < 100 nM |
| CCc1cc(C(=O)c2ccc(Cl)c(Cl)c2)c(NC(=O)CC(C)(C)CC(=O)O)s1 [Example 30, 4-[3-(3,4-Dichloro-benzoyl)-5-ethyl-thiophen-2-ylcarbamoyl]-3,3-dimethyl-butyric acid] | 1000 to 30000 nM |
| CCc1cc(C(=O)c2ccc(F)c(Cl)c2)c(NC(=O)CSCC(=O)O)s1 [Example 31, {[3-(3-Chloro-4-fluoro-benzoyl)-5-ethyl-thiophen-2-ylcarbamoyl]-methylsulfanyl}-acetic acid] | 100 to 1000 nM |
| CCc1cc(C(=O)c2ccc(F)c(Cl)c2)c(NC(=O)CC(C)(C)CC(=O)O)s1 [Example 32, 4-[3-(3-Chloro-4-fluoro-benzoyl)-5-ethyl-thiophen-2-ylcarbamoyl]-3,3-dimethyl-butyric acid] | 1000 to 30000 nM |
| CCc1cc(C(=O)c2ccc(OC(C)C)cc2)c(NC(=O)CSCC(=O)O)s1 [Example 33, {[5-Ethyl-3-(4-isopropoxy-benzoyl)-thiophen-2-ylcarbamoyl]-methylsulfanyl}-acetic acid] | 100 to 1000 nM |
| CCc1cc(C(=O)c2cccc(Br)c2)c(NC(=O)CSCC(=O)O)s1 [Example 34, {[3-(3-Bromo-benzoyl)-5-ethyl-thiophen-2-ylcarbamoyl]-methylsulfanyl}-acetic acid] | 100 to 1000 nM |
| CCc1cc(C(=O)c2ccc(C#N)cc2)c(NC(=O)CSCC(=O)O)s1 [Example 35, {[3-(4-Cyano-benzoyl)-5-ethyl-thiophen-2-ylcarbamoyl]-methylsulfanyl}-acetic acid] | 1000 to 30000 nM |
| CCc1cc(C(=O)c2ccc(-c3ccccc3)cc2)c(NC(=O)CSCC(=O)O)s1 [Example 36, {[3-(Biphenyl-4-carbonyl)-5-ethyl-thiophen-2-ylcarbamoyl]-methylsulfanyl}-acetic acid] | < 100 nM |

Second part, the compound after the results:

| EC50 | SMILES |
| --- | --- |
| 100 to 1000 nM | CCc1cc(C(=O)c2ccc(-c3ccccc3)cc2)c(NC(=O)CC(C)(C)CC(=O)O)s1 [Example 37, 4-[3-(Biphenyl-4-carbonyl)-5-ethyl-thiophen-2-ylcarbamoyl]-3,3-dimethyl-butyric acid] |
| < 100 nM | CCc1cc(C(=O)c2ccc(-c3ccc(C(F)(F)F)cc3)cc2)c(NC(=O)CSCC(=O)O)s1 [Example 38, {[5-Ethyl-3-(4′-trifluoromethyl-biphenyl-4-carbonyl)-thiophen-2-ylcarbamoyl]-methylsulfanyl}-acetic acid] |
| < 100 nM | CCc1cc(C(=O)c2ccc(-c3ccc(OC(F)(F)F)cc3)cc2)c(NC(=O)CSCC(=O)O)s1 [Example 39, {[5-Ethyl-3-(4′-trifluoromethoxy-biphenyl-4-carbonyl)-thiophen-2-ylcarbamoyl]-methylsulfanyl}-acetic acid] |
| < 100 nM | CCc1cc(C(=O)c2ccc(-c3ccc(F)cc3)cc2)c(NC(=O)CSCC(=O)O)s1 [Example 40, {[5-Ethyl-3-(4′-fluoro-biphenyl-4-carbonyl)-thiophen-2-ylcarbamoyl]-methylsulfanyl}-acetic acid] |
| 1000 to 30000 nM | CCc1cc(C(=O)c2ccc(-c3cncnc3)cc2)c(NC(=O)CSCC(=O)O)s1 [Example 41, {[5-Ethyl-3-(4-pyrimidin-5-yl-benzoyl)-thiophen-2-ylcarbamoyl]-methylsulfanyl}-acetic acid] |
| 1000 to 30000 nM | CCc1cc(C(=O)c2ccc(-c3cnn(C)c3)cc2)c(NC(=O)CSCC(=O)O)s1 [Example 42, ({5-Ethyl-3-[4-(1-methyl-1H-pyrazol-4-yl)-benzoyl]-thiophen-2-ylcarbamoyl}-methylsulfanyl)-acetic acid] |
| 100 to 1000 nM | CCc1cc(C(=O)c2cccc(-c3ccc(F)cc3)c2)c(NC(=O)CSCC(=O)O)s1 [Example 43] |
